According to US20160375127A1, “Method of producing an inactivated lentivirus, especially HIV, vaccine, kit and method of use” (LABORATOIRE BIODIM, priority 2013, published 2016):
“Also recorded” adds a separate entry of the source.

Legend:
HIV-1 LAV [1] = assay: p24 titration of virus harvested from treated HeLa-LAV producer cells; assay type: cell-based; settings: HeLa-LAV cells treated during virus production
From the text: (§1) In order to examine the infectivity of viruses produced in the presence of these various compounds, the supernatants were harvested, titrated for viral protein p24 release using the Alliance HIV-1 p24 Antigen ELISA (PerkinElmer, http://www.perkinelmer.com/) and titrated to measure the quantity of infectious particles per ml by infecting TZM-bl indicator cells (from the AIDS reagent program, NIH) expressing luciferase under a Tat-dependent promoter. Alternatively for titration of infectious particles, target cells for HIV-1 infection such as MT4 cells were used.
as §1, with “2—Production of Viral particles in the presence of compounds. […] In” for “In”, “are” for “were”, “harvested, stored at −80° C. and” for “harvested,”, “cells” for “cells (from the AIDS reagent program, NIH)”, “are used as described above in 1a.” for “were used.”

HIV-1 integrase = target: T1, HIV-1 integrase (Human immunodeficiency virus type 1 group M subtype B, UniProt P12497); assay: Size exclusion chromatography of recombinant HIV-1 integrase on Superdex 200 PC 3.2/30; assay type: biochemical; settings: untreated IN elutes as dimer, 64 KD MW; 8 μM IN with 20 μM compound
T1 construct: Superdex 200 16/600 PG column for IN full length; made in house
Experimental: Multimerization of HIV-1 Integrase upon treatment with inactivating compounds was performed using size exclusion chromatography on a Superdex 200 PC 3.2/30 column (GE Healthcare), as described in the method section. Aldolase (158,000 MW), Conalbumin (75,000 MW), Carbonic Anhydrase (29,000 MW), and Ribonuclease A (13,700 MW) were used as protein markers for calibration.
was performed on a Superdex 200 PC 3.2/30 column (GE Healthcare) using an AKTA chromatography system (GE Healthcare) at 0.04 mL/min at room temperature. 20 μL of sample was injected on the column previously equilibrated in Integrase buffer (50 mM HEPES pH 7.5 containing 1M NaCl, 7 mM CHAPS, 5 mM MgCl2, 10% glycerol). 1 μM Compound was added to the mobile phase in order to avoid integrase-inhibitor dissociation during the separation.

HIV-1 LAV [2] = assay: Infectivity of virions from treated HeLa-LAV cells on MT4 cells, cytopathic assay CellTiter-Glo; assay type: cell-based; settings: virus stock diluted up to 2000 times
From the text: as §1
(§2) Usually 1/2000 dilution of the virus stock is used to infect MT4 target cells. Productive HIV-1 infection is determined after 5 days using the CellTiter-Glo® luminescent reagent (Promega, France) to quantify MT4 cell viability. Alternatively, productive infection can be estimated by quantitation of p24 antigen as described in paragraph 2 above.

HIV-1 Gag = assay: Western blot of Gag maturation and CA p24 content in producer cell lysates and virions, anti-p24 antibody; assay type: cell-based; settings: HeLa-LAV cell lysates and defective virions
HIV-1 LAV [3] = assay: Infectivity of virions from treated HeLa-LAV cells on TZM indicator cells, luciferase assay; assay type: cell-based
From the text: as §1
as §1, with “2—Production of Viral particles in the presence of compounds. […] In” for “In”, “are” for “were”, “harvested, stored at −80° C. and” for “harvested,”, “cells” for “cells (from the AIDS reagent program, NIH)”, “are used as described above in 1a.” for “were used.”

HIV-1 NL4-3 [4] = assay: Infectivity of NL4-3 virus from treated transfected 293T cells on MT4 cells, CellTiter-Glo; assay type: cell-based; settings: 293T transfection, compound 48 hours, supernatant diluted 2000 times, MT4 viability
Experimental: FIG. 4: Infectivity of wt NL4-3 viruses harvested from 293T transfected cells after treatment with the indicated compounds and tested by infection of MT4 cells using the cytopathic assay CellTiter-Glo®.
2 hours after transfection indicated compounds were added during virus production for 48 hours at the indicated concentrations. […] Viruses released in cell supernatants were harvested and tested for virus production by p24 assay, and virus infectivity by infection of MT4 cells and cytophatic assay using CellTiter-Glo® (Promega) according manufacturer's instructions.
293T cells (2.2 10^6 cells) are transfected with plasmids harboring full length cloned HIV proviral DNA such as pNL4-3 or any other HIV proviral clone including autologous HIV molecular clones using DNA transfection reagent such as X-tremeGENE 9 reagent (Roche). Cells are washed 3 h later, trypsinized and diluted at 0.3 10^6 cells per ml. 5 10^5 cells in 1.6 ml fresh culture media are distributed into 6 wells plate and the volume is adjusted to 2 ml by adding 0.4 ml of media containing compounds and DMSO per well, or DMSO only as control. As reference compounds capable to fully inactivate HIV during virus production by producer cells, Protease inhibitors such as Indinavir or Saquinavir are used as additional controls. Final concentration for each compound, including reference protease inhibitor compounds, is kept equivalent to 5 times its EC50 concentration previously calculated into a multiple round assay as in (a) and DMSO is kept at 0.5% final concentration. Supernatants containing HIV virions are collected 48 h post-transfection and stored at −80° C. All Viral stocks are quantified for p24 antigen using the Alliance HIV-1 p24 Antigen ELISA (PerkinElmer, http://www.perkinelmer.com/) and titrated to measure the quantity of infectious particles per ml by infecting TZM-bl indicator cells.
as §2, with “above. Full inactivation of the virus stock by compounds is estimated by results obtained in the presence of compound compared on the one hand to DMSO alone which indicates the 100% infectious virus stock (0% inactivation), and on the other hand to Protease inhibitor treatment which indicates the 100% virus stock inactivation.” for “above.”

HIV-1 NL4-3 [5] = assay: CA p24 titration of NL4-3 virus produced by 293T cells in the presence of compound; assay type: cell-based; settings: 1 μM compound in 0.5% DMSO, 48 hours; untreated virus 19.6 μg/ml
Experimental: The assay shown in FIG. 6 measures the concentration of whole virus particles (p24 ng/ml on the Y axis) captured on plates coated with various anti-HIV antibodies at three different concentrations as indicated in the X axis. […] As indicated, two different dilutions of each of these virus preparations were incubated in the antibody-coated plates with the indicated antibodies, for 1 hour. Unbound virions were removed by washing. Virions captured by the indicated antibodies were lysed and quantitated by p24 assay by ELISA (Innogenetics/Ingen, Ghent Belgium). The anti-HIV antibodies used were a neutralizing polyclonal IgG F6 Gri/Ii, an irrelevant IgG F6 Neg (negative control), two monoclonal anti-HIV Env antibodies, 2G12 (neutralizing) and 4B3 (non-neutralizing), and an irrelevant monoclonal antibody (Synagis) as negative control.
(§3) To do so, HIV-1 NL4-3 virus was produced upon 293T cell transfection using Opti-Mem® reagent (Life Technologies) according manufacturer's instructions. […] Cell supernatants containing virus were ultracentrifuged through sucrose cushion. Virus pellets were resuspended in cell culture medium, aliquoted and titrated for CA p24 amount using anti-p24 antibody (Innotest HIV antigen/mAB Immunogenetics/Ingen Ghent, Belgium or Alliance® HIV-I p24 ELISA kit PerkinElmer).

HIV-1 NL4-3 [6] = assay: Check of inactivation: multiple-round infection assay of MT4 human cells during five days; assay type: cell-based; settings: virus produced with 1 μM compound
From the text: as §3

HIV-1 NL4-3 [7] = assay: Western blot of NL4-3 virus lysates with anti-p24, anti-RT and anti-IN antibodies; assay type: cell-based; settings: anti-IN, versus wt virus treated with DMSO

Row | Compound | amount of p24 produced (HIV-1 LAV [1]; versus DMSO) | infectivity / cytopathic effect of viruses produced in the presence of compound (HIV-1 LAV [2]) | perturbation of Gag maturation and CA p24 content (HIV-1 Gag) | infectivity of viruses produced in the presence of compound (HIV-1 LAV [3]) | inactivation of NL4-3 virus produced in the presence of compound (HIV-1 NL4-3 [4]) | also measured
1 | Cc1nc2cc(-c3cccnc3)ccc2c(-c2ccc3c(c2)CCCO3)c1C(OC(C)(C)C)C(=O)O (stereo not drawn) [MUT145212] | comparable to that in the presence of DMSO | totally impaired for such cytopathic effect | could not detect any perturbation of Gag maturation and CA p24 content | non-infectious |  | MW at which HIV-1 integrase is eluted (IN tetramer) (HIV-1 integrase): 130 KD MW
2 | Cc1nc2c(-c3cccc(C(N)=O)c3)cccc2c(-c2ccc3c(c2)CCCO3)c1C(OC(C)(C)C)C(=O)O (stereo not drawn) [MUT145227] | comparable to that in the presence of DMSO | totally impaired for such cytopathic effect | could not detect any perturbation of Gag maturation and CA p24 content | non-infectious |  | 
3 | Cc1nc2cc(C(N)=O)ccc2c(-c2ccc3c(c2)CCCO3)c1C(OC(C)(C)C)C(=O)O (stereo not drawn) [MUT145240] |  |  |  |  |  | MW at which HIV-1 integrase is eluted (IN tetramer) (HIV-1 integrase): 130 KD MW
4 | Cc1nc2c(c(-c3ccc4c(c3)CCCO4)c1C(OC(C)(C)C)C(=O)O)CCCC2 (stereo not drawn) [MUT145509] | comparable to that in the presence of DMSO | totally impaired for such cytopathic effect | could not detect any perturbation of Gag maturation and CA p24 content | non-infectious | inactivated | 
5 | Cc1sc(-c2ccncc2)c(C2=CCC(C)(C)CC2)c1[C@H](OC(C)(C)C)C(=O)O [MUT148237] |  |  |  |  | inactivated | CA p24 titer of virus inactivated during production (HIV-1 NL4-3 [5]): 17.6 µg/mL; excess of inactivated virus over untreated virus needed to infect 100,000 cells (HIV-1 NL4-3 [6]): more than 10,000 times; extent of virus inactivation (HIV-1 NL4-3 [6]): > 99.99%; amount of p24 of virus supernatant needed for infection of 50% of MT4 cells (HIV-1 NL4-3 [6]; untreated virus 0.11 pg): 5,139 pg; protein content and maturation profile of treated virus (HIV-1 NL4-3 [7]): protein content and maturation profile identical to wt virus; also recorded: exactly the same profile, with normal protein content and protein maturation than fully infectious virus
6 | Cc1nnc(C(=O)NC(C)(C)c2nc(C(=O)NCc3ccc(F)cc3)c(O)c(=O)n2C)o1 [Raltegravir, reference compound] |  | fully infectious |  | comparable to viruses produced in the presence of DMSO | no effect | 
7 | CC(C)(C)NC(=O)[C@@H]1C[C@@H]2CCCC[C@@H]2CN1C[C@@H](O)[C@H](Cc1ccccc1)NC(=O)[C@H](CC(N)=O)NC(=O)c1ccc2ccccc2n1 [Saquinavir, reference compound] |  | totally impaired for such cytopathic effect |  | non infectious | inactivated | amount of p24 produced (HIV-1 LAV [1]): 30%; protein content and maturation profile of treated virus (HIV-1 NL4-3 [7]): strong defect in maturation; protein content and maturation profile of treated virus (HIV-1 NL4-3 [7]; listed as saquinavir): strong defect in maturation and absence of RT and IN mature proteins
